Results as given in ChEMBL document CHEMBL3400015, “Tertiary amides of Salinomycin: A new group of antibacterial agents against Bacillus anthracis and methicillin-resistant Staphylococcus epidermidis” (Bioorg Med Chem Lett, 2015).

Legend:
Type in all cases: functional
Escherichia coli [1] = assay: Bactericidal activity against Escherichia coli ATCC 25922 after 24 hrs; conditions: ATCC 25922, 24 h, read-out: MBC99.9
[2] = system: Staphylococcus epidermidis; assay: Bactericidal activity against methicillin-resistant Staphylococcus epidermidis isolate 458/11 after 24 hrs; conditions: isolate 458/11, 24 h, read-out: MBC99.9
Staphylococcus aureus [3] = assay: Bactericidal activity against Staphylococcus aureus ATCC 6538 after 24 hrs; conditions: ATCC 6538, 24 h, read-out: MBC99.9
[4] = system: Staphylococcus epidermidis; assay: Antimicrobial activity against methicillin-resistant Staphylococcus epidermidis isolate 459/11 after 18 hrs by twofold serial broth dilution method; conditions: isolate 459/11, 18 h
Escherichia coli [5] = assay: Bactericidal activity against Escherichia coli NCTC 8196 after 24 hrs; conditions: NCTC 8196, 24 h, read-out: MBC99.9
[6] = system: Staphylococcus epidermidis; assay: Bactericidal activity against methicillin-resistant Staphylococcus epidermidis isolate 407/10 after 24 hrs; conditions: isolate 407/10, 24 h, read-out: MBC99.9
Pseudomonas aeruginosa [7] = assay: Antimicrobial activity against Pseudomonas aeruginosa NCTC 6749 after 18 hrs by twofold serial broth dilution method; conditions: NCTC 6749, 18 h
[8] = system: Staphylococcus epidermidis; assay: Bactericidal activity against methicillin-resistant Staphylococcus epidermidis isolate 469/11 after 24 hrs; conditions: isolate 469/11, 24 h, read-out: MBC99.9
Pseudomonas aeruginosa [9] = assay: Bactericidal activity against Pseudomonas aeruginosa ATCC 15442 after 24 hrs; conditions: ATCC 15442, 24 h, read-out: MBC99.9
Pseudomonas aeruginosa [10] = assay: Antimicrobial activity against Pseudomonas aeruginosa ATCC 15442 after 18 hrs by twofold serial broth dilution method; conditions: ATCC 15442, 18 h
[11] = system: Staphylococcus epidermidis; assay: Bactericidal activity against methicillin-resistant Staphylococcus epidermidis isolate 424/10 after 24 hrs; conditions: isolate 424/10, 24 h, read-out: MBC99.9
Bacillus anthracis = assay: Antimicrobial activity against Bacillus anthracis 34F2 after 18 hrs by twofold serial broth dilution method; conditions: 34F2, 18 h
[12] = system: Staphylococcus epidermidis; assay: Antimicrobial activity against methicillin-resistant Staphylococcus epidermidis isolate 422/10 after 18 hrs by twofold serial broth dilution method; conditions: isolate 422/10, 18 h
Pseudomonas aeruginosa [13] = assay: Bactericidal activity against Pseudomonas aeruginosa ATCC 27853 after 24 hrs; conditions: ATCC 27853, 24 h, read-out: MBC99.9
[14] = system: Staphylococcus epidermidis; assay: Antimicrobial activity against Staphylococcus epidermidis ATCC 12228 after 18 hrs by twofold serial broth dilution method; conditions: ATCC 12228, 18 h
[15] = system: Staphylococcus epidermidis; assay: Antimicrobial activity against methicillin-resistant Staphylococcus epidermidis isolate 454/11 after 18 hrs by twofold serial broth dilution method; conditions: isolate 454/11, 18 h
[16] = system: Staphylococcus epidermidis; assay: Antimicrobial activity against methicillin-resistant Staphylococcus epidermidis isolate 469/11 after 18 hrs by twofold serial broth dilution method; conditions: isolate 469/11, 18 h
[17] = system: Staphylococcus epidermidis; assay: Bactericidal activity against methicillin-resistant Staphylococcus epidermidis isolate 404/10 after 24 hrs; conditions: isolate 404/10, 24 h, read-out: MBC99.9
Escherichia coli [18] = assay: Antimicrobial activity against Escherichia coli ATCC 25922 after 18 hrs by twofold serial broth dilution method; conditions: ATCC 25922, 18 h
Staphylococcus aureus [19] = assay: Antimicrobial activity against Staphylococcus aureus ATCC 6538 after 18 hrs by twofold serial broth dilution method; conditions: ATCC 6538, 18 h
[20] = system: Staphylococcus epidermidis; assay: Antimicrobial activity against methicillin-resistant Staphylococcus epidermidis isolate 455/11 after 18 hrs by twofold serial broth dilution method; conditions: isolate 455/11, 18 h
Staphylococcus aureus [21] = assay: Bactericidal activity against Staphylococcus aureus NCTC 4163 after 24 hrs; conditions: NCTC 4163, 24 h, read-out: MBC99.9
Pseudomonas aeruginosa [22] = assay: Antimicrobial activity against Pseudomonas aeruginosa ATCC 27853 after 18 hrs by twofold serial broth dilution method; conditions: ATCC 27853, 18 h
[23] = system: Staphylococcus epidermidis; assay: Antimicrobial activity against methicillin-resistant Staphylococcus epidermidis isolate 407/10 after 18 hrs by twofold serial broth dilution method; conditions: isolate 407/10, 18 h
[24] = system: Staphylococcus epidermidis; assay: Antimicrobial activity against methicillin-resistant Staphylococcus epidermidis isolate 461/11 after 18 hrs by twofold serial broth dilution method; conditions: isolate 461/11, 18 h
Staphylococcus aureus [25] = assay: Antimicrobial activity against Staphylococcus aureus […] after 18 hrs by twofold serial broth dilution method
[26] = system: Staphylococcus epidermidis; assay: Antimicrobial activity against methicillin-resistant Staphylococcus epidermidis isolate 409/10 after 18 hrs by twofold serial broth dilution method; conditions: isolate 409/10, 18 h
[27] = system: Staphylococcus epidermidis; assay: Antimicrobial activity against methicillin-resistant Staphylococcus epidermidis isolate 457/11 after 18 hrs by twofold serial broth dilution method; conditions: isolate 457/11, 18 h
Staphylococcus aureus [28] = assay: Bactericidal activity against Staphylococcus aureus ATCC 25923 after 24 hrs; conditions: ATCC 25923, 24 h, read-out: MBC99.9
[29] = system: Staphylococcus epidermidis; assay: Bactericidal activity against methicillin-resistant Staphylococcus epidermidis isolate 455/11 after 24 hrs; conditions: isolate 455/11, 24 h, read-out: MBC99.9
[30] = system: Staphylococcus epidermidis; assay: Bactericidal activity against methicillin-resistant Staphylococcus epidermidis isolate 403/10 after 24 hrs; conditions: isolate 403/10, 24 h, read-out: MBC99.9
Pseudomonas aeruginosa [31] = assay: Bactericidal activity against Pseudomonas aeruginosa NCTC 6749 after 24 hrs; conditions: NCTC 6749, 24 h, read-out: MBC99.9
[32] = system: Staphylococcus epidermidis; assay: Bactericidal activity against methicillin-resistant Staphylococcus epidermidis isolate 459/11 after 24 hrs; conditions: isolate 459/11, 24 h, read-out: MBC99.9
[33] = system: Staphylococcus epidermidis; assay: Bactericidal activity against methicillin-resistant Staphylococcus epidermidis isolate 405/10 after 24 hrs; conditions: isolate 405/10, 24 h, read-out: MBC99.9
Escherichia coli [34] = assay: Antimicrobial activity against Escherichia coli ATCC 10538 after 18 hrs by twofold serial broth dilution method; conditions: ATCC 10538, 18 h
[35] = system: Staphylococcus epidermidis; assay: Antimicrobial activity against methicillin-resistant Staphylococcus epidermidis isolate 470/11 after 18 hrs by twofold serial broth dilution method; conditions: isolate 470/11, 18 h
[36] = system: Staphylococcus epidermidis; assay: Antimicrobial activity against methicillin-resistant Staphylococcus epidermidis isolate 404/10 after 18 hrs by twofold serial broth dilution method; conditions: isolate 404/10, 18 h
Escherichia coli [37] = assay: Antimicrobial activity against Escherichia coli NCTC 8196 after 18 hrs by twofold serial broth dilution method; conditions: NCTC 8196, 18 h
Staphylococcus aureus [38] = assay: Bactericidal activity against Staphylococcus aureus […] after 24 hrs; conditions: read-out: MBC99.9
[39] = system: Staphylococcus epidermidis; assay: Bactericidal activity against methicillin-resistant Staphylococcus epidermidis isolate 461/11 after 24 hrs; conditions: isolate 461/11, 24 h, read-out: MBC99.9
[40] = system: Staphylococcus epidermidis; assay: Bactericidal activity against methicillin-resistant Staphylococcus epidermidis isolate 454/11 after 24 hrs; conditions: isolate 454/11, 24 h, read-out: MBC99.9
[41] = system: Staphylococcus epidermidis; assay: Bactericidal activity against methicillin-resistant Staphylococcus epidermidis isolate 457/11 after 24 hrs; conditions: isolate 457/11, 24 h, read-out: MBC99.9
[42] = system: Staphylococcus epidermidis; assay: Bactericidal activity against Staphylococcus epidermidis ATCC 12228 after 24 hrs; conditions: ATCC 12228, 24 h, read-out: MBC99.9

CCCN(CCC)C(=O)[C@H](CC)[C@H]1CC[C@H](C)[C@H]([C@@H](C)[C@H](O)[C@H](C)C(=O)[C@H](CC)[C@H]2O[C@]3(C=C[C@@H](O)[C@]4(CC[C@@](C)([C@H]5CC[C@](O)(CC)[C@H](C)O5)O4)O3)[C@H](C)C[C@@H]2C)O1
256 µg/mL: MBC [2] | MBC (Staphylococcus aureus [3]) | MBC [6] | MBC [11] | MBC [29] | MBC (Staphylococcus aureus [38]) | MBC [41] | MBC [42]
1 µg/mL: MIC (Staphylococcus aureus [19])
2 µg/mL: MIC [14] | MIC (Staphylococcus aureus [25])
> 256 µg/mL: MBC (Escherichia coli [1]) | MBC (Escherichia coli [5]) | MIC (Pseudomonas aeruginosa [7]) | MBC (Pseudomonas aeruginosa [9]) | MIC (Pseudomonas aeruginosa [10]) | MBC (Pseudomonas aeruginosa [13]) | MIC (Escherichia coli [18]) | MBC (Staphylococcus aureus [21]) | MIC (Pseudomonas aeruginosa [22]) | MBC (Staphylococcus aureus [28]) | MBC (Pseudomonas aeruginosa [31]) | MIC (Escherichia coli [34]) | MIC (Escherichia coli [37])
128 µg/mL: MBC [8] | MBC [17] | MBC [30] | MBC [32] | MBC [33] | MBC [39] | MBC [40]
4 µg/mL: MIC [4] | MIC (Bacillus anthracis) | MIC [15] | MIC [16] | MIC [23] | MIC [24] | MIC [36]
8 µg/mL: MIC [12] | MIC [20] | MIC [26] | MIC [27] | MIC [35]

CC[C@@H](C(=O)[C@@H](C)[C@@H](O)[C@H](C)[C@@H]1O[C@@H]([C@@H](CC)C(=O)N(CC)CC)CC[C@@H]1C)[C@H]1O[C@]2(C=C[C@@H](O)[C@]3(CC[C@@](C)([C@H]4CC[C@](O)(CC)[C@H](C)O4)O3)O2)[C@H](C)C[C@@H]1C
4 µg/mL: MIC [4] | MIC [15] | MIC [23] | MIC [24] | MIC (Staphylococcus aureus [25]) | MIC [26] | MIC [27] | MIC [35] | MIC [36]
256 µg/mL: MBC [8] | MBC [11] | MBC [17] | MBC [29] | MBC [30] | MBC [32] | MBC [33]
8 µg/mL: MIC [12] | MIC [16] | MIC [20]
1 µg/mL: MIC (Bacillus anthracis)
128 µg/mL: MBC [2] | MBC [6] | MBC [39] | MBC [40] | MBC [41]
64 µg/mL: MBC (Staphylococcus aureus [3]) | MBC (Staphylococcus aureus [21]) | MBC (Staphylococcus aureus [28]) | MBC (Staphylococcus aureus [38]) | MBC [42]
2 µg/mL: MIC [14] | MIC (Staphylococcus aureus [19])
> 256 µg/mL: MBC (Escherichia coli [1]) | MBC (Escherichia coli [5]) | MIC (Pseudomonas aeruginosa [7]) | MBC (Pseudomonas aeruginosa [9]) | MIC (Pseudomonas aeruginosa [10]) | MBC (Pseudomonas aeruginosa [13]) | MIC (Escherichia coli [18]) | MIC (Pseudomonas aeruginosa [22]) | MBC (Pseudomonas aeruginosa [31]) | MIC (Escherichia coli [34]) | MIC (Escherichia coli [37])
